Results on one molecule are retold here after PMC6259843 (Molecules, 2011).

The target of the test is T1, pancreatic α-amylase (Sus scrofa, UniProt P00690).
T1 construct: gene AMY2
T1 sequence (P00690 16-511): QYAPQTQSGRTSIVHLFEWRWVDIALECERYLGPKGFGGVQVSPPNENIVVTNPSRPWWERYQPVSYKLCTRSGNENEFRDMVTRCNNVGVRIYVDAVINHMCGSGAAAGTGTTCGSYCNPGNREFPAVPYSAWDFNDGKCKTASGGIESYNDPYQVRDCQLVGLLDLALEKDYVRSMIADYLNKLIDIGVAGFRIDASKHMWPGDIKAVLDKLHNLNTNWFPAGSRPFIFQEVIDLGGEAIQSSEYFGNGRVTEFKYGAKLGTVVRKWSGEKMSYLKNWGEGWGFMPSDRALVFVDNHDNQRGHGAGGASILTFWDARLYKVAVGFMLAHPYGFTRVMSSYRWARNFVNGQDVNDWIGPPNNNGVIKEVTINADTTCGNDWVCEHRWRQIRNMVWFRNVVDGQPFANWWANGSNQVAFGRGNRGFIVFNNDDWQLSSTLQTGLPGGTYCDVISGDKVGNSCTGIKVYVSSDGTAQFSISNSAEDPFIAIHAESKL
Put plainly: starch hydrolysis inhibition assay with DNS readout at […] nm; Lineweaver-Burk kinetics. The test is classed as biochemical.

For orientation: IC50 means the concentration that inhibits the measured activity by half. On to `C[C@@H]1O[C@@H](OC[C@H]2O[C@@H](Oc3cc4c(O)cc(O)cc4[o+]c3-c3ccc(O)c(O)c3)[C@H](O)[C@@H](O)[C@@H]2O)[C@H](O)[C@H](O)[C@H]1O` [C3R, Cyanidin-3-rutinoside], for which the IC50 came to 24.4 ± 0.1 µM.
